The text below walks through data of ChEMBL document CHEMBL2203002, “Fluorescent nitrile-based inhibitors of cysteine cathepsins” (Bioorg Med Chem Lett, 2012).

The target of assay [1] is T1, Cathepsin B (Homo sapiens, UniProt P07858). Description: Inhibition of human recombinant cathepsin B using Z-Arg-Arg-pNA as substrate after 10 mins by […] analysis.
The target of assay [2] is T2, Cathepsin S (Homo sapiens, UniProt P25774). As to the kind of experiment: Inhibition of human recombinant cathepsin S using Z-Phe-Arg-pNA as substrate after 10 mins by […] analysis.
Target sequence in this assay (P25774 whole entry): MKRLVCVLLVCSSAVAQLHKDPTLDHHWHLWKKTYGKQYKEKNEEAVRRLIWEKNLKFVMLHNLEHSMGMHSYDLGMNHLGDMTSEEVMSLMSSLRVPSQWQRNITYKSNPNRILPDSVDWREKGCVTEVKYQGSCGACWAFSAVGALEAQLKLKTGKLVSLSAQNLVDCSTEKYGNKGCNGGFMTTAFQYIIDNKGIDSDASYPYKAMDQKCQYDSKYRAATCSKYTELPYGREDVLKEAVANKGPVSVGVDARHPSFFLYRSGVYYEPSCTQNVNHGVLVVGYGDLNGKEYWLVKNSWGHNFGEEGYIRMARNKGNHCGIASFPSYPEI
Assay [3] has as its target T3, Cathepsin K (Homo sapiens, UniProt P43235).
T3 sequence (P43235 whole entry): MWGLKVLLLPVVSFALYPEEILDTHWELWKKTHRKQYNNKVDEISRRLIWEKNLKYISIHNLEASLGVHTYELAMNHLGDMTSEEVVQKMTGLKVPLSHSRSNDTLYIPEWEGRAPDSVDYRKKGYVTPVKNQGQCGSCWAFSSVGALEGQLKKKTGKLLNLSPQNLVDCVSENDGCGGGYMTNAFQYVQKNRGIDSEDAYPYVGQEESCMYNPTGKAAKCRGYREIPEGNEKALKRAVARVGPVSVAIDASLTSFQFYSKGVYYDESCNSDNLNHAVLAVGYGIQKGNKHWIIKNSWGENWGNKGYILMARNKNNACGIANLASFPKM
Description: Inhibition of human recombinant cathepsin K using Z-Leu-Arg-AMC as substrate after 10 mins by fluorimetric analysis.

Assay [4] in a line: Inhibition of human cathepsin L using Z-Phe-Arg-pNA as substrate after 10 mins by […] analysis.
Assay [5] deals with T4, Cathepsin K (Homo sapiens) (UniProt P43235).
T4 sequence (whole entry): T3 sequence (P43235 whole entry)
Description: Binding affinity to human recombinant cathepsin K assessed as compound-enzyme half life

Assay [6] addresses T2, Cathepsin S. As to the kind of experiment: Inhibition of human recombinant cathepsin S using Z-Phe-Arg-pNA as substrate after 80 mins by […] analysis.
Target sequence in this assay (P25774 whole entry): as the sequence (P25774 whole entry) above
Assay [7] concerns the target T1, Cathepsin B. As to the kind of experiment: Inhibition of human recombinant cathepsin B using Z-Arg-Arg-pNA as substrate after 80 mins by […] analysis.
In assay [8] the target is T3, Cathepsin K. Description: Inhibition of human recombinant cathepsin K using Z-Leu-Arg-AMC as substrate after 80 mins by fluorimetric analysis.
Assay [9] deals with T2, Cathepsin S.
Target sequence in this assay (P25774 115-331 limits assumed): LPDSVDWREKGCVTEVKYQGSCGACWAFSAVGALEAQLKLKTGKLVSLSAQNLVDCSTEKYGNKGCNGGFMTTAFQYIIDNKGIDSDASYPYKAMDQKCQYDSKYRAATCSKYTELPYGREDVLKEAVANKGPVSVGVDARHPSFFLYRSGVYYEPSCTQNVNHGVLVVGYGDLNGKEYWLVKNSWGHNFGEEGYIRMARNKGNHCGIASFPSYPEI
Description: Binding affinity to human recombinant cathepsin S assessed as compound-enzyme half life
Assay [10] is described as follows: Inhibition of human cathepsin L using Z-Phe-Arg-pNA as substrate incubated for 30 mins prior to substrate addition measured after 10 mins by […] analysis.
Assay [11] addresses T1, Cathepsin B.
Description: Binding affinity to human recombinant cathepsin B assessed as compound-enzyme half life

Usually Ki stands for the equilibrium dissociation constant of an inhibitor or competing ligand from its target. Regarding `CCN(CC)c1ccc2cc(C(=O)NC3(C(=O)NCC#N)CCCCC3)c(=O)oc2c1`, the Ki is > 40000 nM at Cathepsin B [1], 8400 nM on Cathepsin S [2], 230 nM at Cathepsin K [3] and 18000 nM in assay [4].
The matching figures for `CN(C)c1cccc2c(S(=O)(=O)NC3(C(=O)NCC#N)CCCCC3)cccc12`: > 40000 nM, 6600 nM, 880 nM and > 40000 nM.
Take `CCN(CC)c1ccc2cc(C(=O)NC3(C(=O)N(C)N(C)C#N)CCCCC3)c(=O)oc2c1`: the T1/2 (in [5]; on Cathepsin S [9]; at Cathepsin B [11]) was 30 min throughout. Also, the Ki at Cathepsin S [6] stood at 750 nM; at Cathepsin B [7], 140 nM; at Cathepsin K [8], 19 nM; in [10], 760 nM.
